Source: patent US9334279B2, “Hepatitis C virus inhibitors” (BRISTOL-MYERS SQUIBB COMPANY, priority 2012, dated 2016)
pEC50: −log10 of the molar value. Read-outs that look alike come from different tables or passages of the source.

Key:
[1] = system: HCV GT1a(H77) replicon; experiment: HCV replicon luciferase reporter assay, genotype 1a; assay type: cell-based, HCV genotype 1a; details: Hepatitis C virus, 72 h, HUH-7 cells, Renilla luciferase, 3 days incubation
From the text: A stable HCV GT1a(H77) replicon luciferase reporter cell line (Yanagi M, Purcell RH, Emerson S U, et al. Transcripts from a single full-length cDNA clone of hepatitis C virus are infectious when directly transfected into the liver of a chimpanzee. Proc Natl Acad Sci USA 1997; 94(16):8738-8743) was generated as described previously for the genotype 1b(Con1) replicon luciferase cell line. The replicon construct was modified by introducing mutations into the genes encoding the NS3 helicase domain (proline replaced by leucine at position 1496) and NS5A (serine to isoleucine at position 2204) to improve replication in cell culture.
(§1) HCV replicon luciferase assays were developed to monitor the inhibitory effects of compounds described in the disclosure on HCV genotypes 1a and 1b viral replication. HUH-7 cells, constitutively expressing the HCV replicon, were grown in Dulbecco's Modified Eagle Media (DMEM) (Gibco-BRL) containing 10% Fetal calf serum (FCS) (Sigma) and 1 mg/mL G418 (Gibco-BRL). Compounds were serially diluted 3 folds in DMSO for a twenty-point titration and subsequently transferred to sterile 384-well tissue-culture treated plates (Corning cat #3571). The plates were then seeded with 50 μL of cells at a density of 3.0×10^3 cells/well in DMEM containing 4% FCS (final DMSO concentration at 0.5%). After 3 days incubation at 37° C., cells were analyzed for Renilla Luciferase activity using the EnduRen as substrate (Promega cat #E6485). The EnduRen substrate was diluted in DMEM and then added to the plates to a final concentration of 7.5 μM. The plates were incubated for 2 hrs at 37° C. and then read immediately for 30 seconds with Viewlux Imager (PerkinElmer) using a luminescence program. To assess cytotoxicity of compounds, CC50 values were generated by multiplexing the EnduRen-containing plates with Cell Titer-Blue (Promega, cat #G8082). Cell-Titer Blue (3 μL) was added to each well and incubated for 8 hrs at 37° C. The fluorescence signal from each well was read, with an excitation wavelength at 525/10 nm and an emission wavelength of 598/10 nm, using the Viewlux Imager.
(§2) The EC50 values for compounds were calculated by using a four-parameter logistic equation: y=A+[…])/(1+((C/x)^D))), where A and B denotes minimal and maximal % inhibition, respectively, C is the EC50, D is the hill slope and x represents compound concentration.

[2] = system: HCV GT1b(Con1) replicon; experiment: HCV replicon luciferase reporter assay, genotype 1b; assay type: cell-based, HCV genotype 1b; details: Hepatitis C virus, 72 h, HUH-7 cells, Renilla luciferase, 3 days incubation
From the text: An HCV GT1b(Con1) replicon cell system was established as described by Lohmann V, Korner F, Koch J, Herian U, Theilmann L, Bartenschlager R., Science 285(5424):110-3 (1999) and modified to introduce a luciferase reporter (Krieger N, Lohmann V, and Bartenschlager R, J. Virol. 75(10):4614-4624 (2001)). cDNA encoding a humanized form of the Renilla luciferase gene, and a linker sequence fused directly to the 3′-end of the luciferase gene were introduced into the replicon construct using an Asc1 restriction site located in core, directly upstream of the neomycin marker gene. The adaptive mutation at position 1179 (serine to isoleucine) was also introduced (Blight K J, Kolykhalov, A A, Rice, C M, Science 290(5498):1972-1974). A stable cell line constitutively expressing this HCV replicon construct was generated by first linearizing plasmid DNAs with ScaI. RNA transcripts were synthesized in vitro using the T7 MegaScript transcription kit (Ambion, Austin, Tex.) according to manufacturer's directions. In vitro transcripts of the cDNA were transfected into the human hepatoma cell line, HUH-7. […] Resulting cell lines were characterized for positive and negative strand RNA production and protein production over time.
as §1, §2

Question: With `COc1cccc(-c2cc(O[C@@H]3C[C@H]4C(=O)N[C@]5(C(=O)NS(=O)(=O)C6(C)CC6)C[C@H]5/C=C\CCC(C)C[C@@H](C)[C@H](NC(=O)OC(C)(C)C(F)(F)F)C(=O)N4C3)cc(-c3ccc(OC(C)C)cc3)n2)n1` (stereo in doubt) [Compound 1012, 1,1,1-trifluoro-2-methylpropan-2-yl ((2R,6S,7R,9R,13aS,14aR,16aS,Z)-2-((6-(4-isopropoxyphenyl)-6′-methoxy-[2,2′-bipyridin]-4-yl)oxy)-7,9-dimethyl-14a-(((1-methylcyclopropyl)sulfonyl)carbamoyl)-5,16-dioxo-1,2,3,5,6,7,8,9,10,11,13a,14,14a,15,16,16a-hexadecahydrocyclopropa[e]pyrrolo[1,2-a][1,4]diazacyclopentadecin-6-yl)carbamate] as the compound, how does the pEC50 ([1]; read-out: LE_1a (EC50, range)) read?
Answer: Its pEC50 is 7.46 to 8.30.

Question: What about the pEC50 ([2]; read-out: LE_1b (EC50, range)) of the same compound?
Answer: Its pEC50 is 7.46 to 8.30.

Question: With `CC(C)Oc1ccc(-c2cc(O[C@@H]3C[C@H]4C(=O)N[C@]5(C(=O)NS(=O)(=O)C6(C)CC6)C[C@H]5/C=C\CC[C@@H](C)C[C@@H](C)[C@H](NC(=O)OC(C)(C)C(F)(F)F)C(=O)N4C3)cc(-c3cnccn3)n2)cc1` [Compound 1001, 1,1,1-trifluoro-2-methylpropan-2-yl ((2R,6S,7R,9R,13aS,14aR,16aS,Z)-2-((2-(4-isopropoxyphenyl)-6-(pyrazin-2-yl)pyridin-4-yl)oxy)-7,9-dimethyl-14a-(((1-methylcyclopropyl)sulfonyl)carbamoyl)-5,16-dioxo-1,2,3,5,6,7,8,9,10,11,13a,14,14a,15,16,16a-hexadecahydrocyclopropa[e]pyrrolo[1,2-a][1,4]diazacyclopentadecin-6-yl)carbamate] as the compound, how does the pEC50 ([1]; read-out: LE_1a (EC50, range)) read?
Answer: The pEC50 was 8.30 to 9.00.

Question: What about the pEC50 ([2]; read-out: LE_1b (EC50, range)) of the same compound?
Answer: Its pEC50 is 9.00 to 9.29.

Question: `CC(C)Oc1ccc(-c2cc(O[C@@H]3C[C@H]4C(=O)N[C@]5(C(=O)NS(=O)(=O)C6(C)CC6)C[C@H]5/C=C\CC[C@H](C)C[C@@H](C)[C@H](NC(=O)OC(C)(C)C(F)(F)F)C(=O)N4C3)cc(-c3cnccn3)n2)cc1` [Compound 1002, 1,1,1-trifluoro-2-methylpropan-2-yl ((2R,6S,7R,9S,13aS,14aR,16aS,Z)-2-((2-(4-isopropoxyphenyl)-6-(pyrazin-2-yl)pyridin-4-yl)oxy)-7,9-dimethyl-14a-(((1-methylcyclopropyl)sulfonyl)carbamoyl)-5,16-dioxo-1,2,3,5,6,7,8,9,10,11,13a,14,14a,15,16,16a-hexadecahydrocyclopropa[e]pyrrolo[1,2-a][1,4]diazacyclopentadecin-6-yl)carbamate] was tested. Which pEC50 ([1]; read-out: LE_1a (EC50)) did it give?
Answer: Its pEC50 is 7.23.

Question: What about the pEC50 ([1]; read-out: LE_1a (EC50, range)) of the same compound?
Answer: The pEC50 was 6.44 to 7.46.

Question: What about the pEC50 ([2]; read-out: LE_1b (EC50)) of the same compound?
Answer: The pEC50 was 7.93.

Question: What about the pEC50 ([2]; read-out: LE_1b (EC50, range)) of the same compound?
Answer: The pEC50 was 7.46 to 8.30.

Question: Which results are given for `CC(C)Oc1ccc(-c2cc(O[C@@H]3C[C@H]4C(=O)N[C@]5(C(=O)NS(=O)(=O)C6(C)CC6)C[C@H]5/C=C\CC[C@@H](C)C[C@@H](C)[C@H](NC(=O)OC(C)(C)C(F)(F)F)C(=O)N4C3)cc(-c3cncs3)n2)cc1` [Compound 1003, 1,1,1-trifluoro-2-methylpropan-2-yl ((2R,6S,7R,9R,13aS,14aR,16aS,Z)-2-((2-(4-isopropoxyphenyl)-6-(thiazol-5-yl)pyridin-4-yl)oxy)-7,9-dimethyl-14a-(((1-methylcyclopropyl)sulfonyl)carbamoyl)-5,16-dioxo-1,2,3,5,6,7,8,9,10,11,13a,14,14a,15,16,16a-hexadecahydrocyclopropa[e]pyrrolo[1,2-a][1,4]diazacyclopentadecin-6-yl)carbamate]?
Answer: pEC50 ([1]; read-out: LE_1a (EC50, range)): 8.30 to 9.00; pEC50 ([2]; read-out: LE_1b (EC50, range)): 8.30 to 9.00

Question: `C[C@@H]1CC/C=C\[C@@H]2C[C@@]2(C(=O)NS(=O)(=O)C2(C)CC2)NC(=O)[C@@H]2C[C@@H](Oc3ncccc3C(F)(F)F)CN2C(=O)[C@@H](NC(=O)OC(C)(C)C)[C@H](C)C1` [Compound 1065, tert-butyl ((2R,6S,7R,9R,13aS,14aR,16aS,Z)-7,9-dimethyl-14a-(((1-methylcyclopropyl)sulfonyl)carbamoyl)-5,16-dioxo-2-((3-(trifluoromethyl)pyridin-2-yl)oxy)-1,2,3,5,6,7,8,9,10,11,13a,14,14a,15,16,16a-hexadecahydrocyclopropa[e]pyrrolo[1,2-a][1,4]diazacyclopentadecin-6-yl)carbamate] was tested. Which pEC50 ([2]; read-out: LE_1b (EC50, range)) did it give?
Answer: The pEC50 was 8.30 to 9.00.

Question: With `C[C@@H]1CC/C=C\[C@@H]2C[C@@]2(C(=O)NS(=O)(=O)C2(C)CC2)NC(=O)[C@@H]2C[C@@H](Oc3ncccc3C(F)(F)F)CN2C(=O)[C@@H](NC(=O)OC(C)(C)C(F)(F)F)[C@H](C)C1` [Compound 1066, 1,1,1-trifluoro-2-methylpropan-2-yl ((2R,6S,7R,9R,13aS,14aR,16aS,Z)-7,9-dimethyl-14a-(((1-methylcyclopropyl)sulfonyl)carbamoyl)-5,16-dioxo-2-((3-(trifluoromethyl)pyridin-2-yl)oxy)-1,2,3,5,6,7,8,9,10,11,13a,14,14a,15,16,16a-hexadecahydrocyclopropa[e]pyrrolo[1,2-a][1,4]diazacyclopentadecin-6-yl)carbamate] as the compound, how does the pEC50 ([2]; read-out: LE_1b (EC50, range)) read?
Answer: Its pEC50 is 9.00 to 9.29.

Question: `C[C@@H]1CC/C=C\[C@@H]2C[C@@]2(C(=O)NS(=O)(=O)C2(C)CC2)NC(=O)[C@@H]2C[C@@H](Oc3nccc(Cl)c3C(F)(F)F)CN2C(=O)[C@@H](NC(=O)OC(C)(C)C(F)(F)F)[C@H](C)C1` [Compound 1067, 1,1,1-trifluoro-2-methylpropan-2-yl ((2R,6S,7R,9R,13aS,14aR,16aS,Z)-2-((4-chloro-3-(trifluoromethyl)pyridin-2-yl)oxy)-7,9-dimethyl-14a-(((1-methylcyclopropyl)sulfonyl)carbamoyl)-5,16-dioxo-1,2,3,5,6,7,8,9,10,11,13a,14,14a,15,16,16a-hexadecahydrocyclopropa[e]pyrrolo[1,2-a][1,4]diazacyclopentadecin-6-yl)carbamate] was tested. Which pEC50 ([2]; read-out: LE_1b (EC50, range)) did it give?
Answer: Its pEC50 is 9.30 to 10.00.

Question: How did the pEC50 ([2]; read-out: LE_1b (EC50, range)) turn out when `COc1cccc(O[C@@H]2C[C@H]3C(=O)N[C@]4(C(=O)NS(=O)(=O)C5(C)CC5)C[C@H]4/C=C\CC[C@@H](C)C[C@@H](C)[C@H](NC(=O)OC(C)(C)C(F)(F)F)C(=O)N3C2)n1` [Compound 1068, 1,1,1-trifluoro-2-methylpropan-2-yl ((2R,6S,7R,9R,13aS,14aR,16aS,Z)-2-((6-methoxypyridin-2-yl)oxy)-7,9-dimethyl-14a-(((1-methylcyclopropyl)sulfonyl)carbamoyl)-5,16-dioxo-1,2,3,5,6,7,8,9,10,11,13a,14,14a,15,16,16a-hexadecahydrocyclopropa[e]pyrrolo[1,2-a][1,4]diazacyclopentadecin-6-yl)carbamate] was run?
Answer: Its pEC50 is 8.30 to 9.00.

Question: How did the pEC50 ([2]; read-out: LE_1b (EC50, range)) turn out when `C[C@@H]1CC/C=C\[C@@H]2C[C@@]2(C(=O)NS(=O)(=O)C2(C)CC2)NC(=O)[C@@H]2C[C@@H](Oc3ncccc3Cl)CN2C(=O)[C@@H](NC(=O)OC(C)(C)C(F)(F)F)[C@H](C)C1` [Compound 1069, 1,1,1-trifluoro-2-methylpropan-2-yl ((2R,6S,7R,9R,13aS,14aR,16aS,Z)-2-((3-chloropyridin-2-yl)oxy)-7,9-dimethyl-14a-(((1-methylcyclopropyl)sulfonyl)carbamoyl)-5,16-dioxo-1,2,3,5,6,7,8,9,10,11,13a,14,14a,15,16,16a-hexadecahydrocyclopropa[e]pyrrolo[1,2-a][1,4]diazacyclopentadecin-6-yl)carbamate] was run?
Answer: The pEC50 was 9.30 to 10.00.
